Data as given in patent US20090036531A1, “Method for treatment of onychomycosis” (priority 2005, published 2009).
Like-named read-outs stand apart in the source and are kept apart here.

Key:
[1] = cited from earlier work
onychomycosis = settings: continuous therapy (ingestion); cited from earlier work
Onychomycosis fungi = experiment: Addition of undecylenic acid or hydroquinone to cyanoacrylate ester on infected nails; format: in vivo; settings: for effect on yellow color of infected nails: added to cyanoacrylate ester

## 2-ETHYL CYANO ACRYLATE
[1]; Cured State
  Soluble In: Pacer X-8 Debonder, Acetone,
[1]; Liquid State
  Soluble In: Acetone, MEK, Nitromethane

## CN(C/C=C/C#CC(C)(C)C)Cc1cccc2ccccc12 [Lamisil, terbinafine]
onychomycosis
  Cure of all nails (share of subjects): 25%
  complete cure: 41%
  mycological cure: 71%

## Oc1ccc(O)cc1 [hydroquine]
Onychomycosis fungi
  effect on yellow color of infected nails: remove the yellow-color of infected nails

## C=CCCCCCCCCC(=O)O [undecylenic acid]
Onychomycosis fungi
  effect on yellow color of infected nails: remove the yellow-color of infected nails
Onychomycosis fungi; addition of 1-12%, preferably 2-10%
  effect on spread of infection: inhibit the spread of infection
